Test results as given in patent US9586995B2, “Compositions and methods of use for (pro)renin receptor” (University of Utah, priority 2012, dated 2017).

Experiments:
[1] = Plasma and urinary aldosterone in AngII-infused rats; type: in vivo, rat; conditions: following AngII infusion
Method: FIGS. 31A, B, and C show the role of PRR in AngII-induced aldosterone production in vivo and in vitro. Plasma aldosterone concentrations (A) and urinary aldosterone excretion (B) were determined in control, AngII, AngII+IM PRO20, and AngII+IV PRO20 rats. The direct action of PRO20 in aldosterone regulation was tested in primary culture of rat IMCD cells (C). For the in vitro study, the cells were exposed to vehicle, AngII, or AngII+PRO20 and the medium were assayed for aldosterone release. N=3-6 per group. Data are means±SE.
Under anesthesia, blood was collected puncturing vena cava, and plasma was recovered by centrifugation. At the end of experiments, animals were placed in metabolic cages for urine collections. The renal inner medulla was homogenized in 2.6 mM EDTA, 3.4 mM hydroxyquinoline, 5 mM ammonium acetate, 200 μM PMSF, and 0.256 μM dimercaprol. […] Renin activity in urine, tissue homogenates, and cell culture medium was determined by measurement of AngI generation using an ELISA kit and it was performed in the native condition, active renin content with excessive angiotensinogen, and total renin content with excessive angiotensinogen plus trypsinization as previously described. Aldosterone concentrations in plasma, urine, and cell culture medium were measured using a commercial ELISA kit (Cat#:10004377, Cayman Chemical). […]

renal medullary PRR = renal medullary PRR (Rattus norvegicus, UniProt Q6AXS4); experiment: AngII-induced hypertension in uninephrectomized SD rats, telemetry MAP; type: in vivo; conditions: AngII 100 ng/kg/min s.c. alone or with intramedullary PRO20 120 μg/kg/d; day 0 MAP 108+5.8
Method: FIGS. 26A, 26B, 26C, 26D, and 26E show the characterization of PRO20 and examination of its effect on AngII-induced hypertension. Comparison of PRO20 (B and D) and the HRP (A and C) in inhibiting prorenin-induced signaling. Primary rat IMCD cells were pretreated for 1 h with PRO20 (1.5 μM) or the HRP (2.0 μM) and then were exposed to 100 nM prorenin for 10 min. ERK1/2 phosphorylation was determined by immunoblotting. (E) Effect of intramedullary delivery of PRO20 on AngII-induced hypertension. Uninephrectomized SD rats were divided into the following three groups: (1) AngII, (2) AngII+IM PRO (intramedullary PRO20 infusion), and (3) AngII+IV PRO20 (intravenous PRO20 infusion). AngII was subcutaneously infused at 100 ng/kg/min via an osmotic mini-pump. IM PRO (PRO20 at 120 μg/kg/d) was performed via a catheter chronically implanted in the renal medulla. To control the spillover, IV PRO (PRO20 at 120 μg/kg/d) was performed via catheterization of jugular vein. Telemetry was performed to monitor mean arterial pressure (MAP) and it was turned on 4 h per day from 5:00 PM to 9:00 PM for 7 days. #p<0.01 vs. intravenous PRO20; *, p<0.05 vs. AngII alone. N=3-6 per group. Data are mean+SE. […]

α-ENaC = experiment: Renal ENaC expression in AngII-infused rats (immunoblotting, qRT-PCR); type: in vivo, rat; conditions: following AngII infusion
Method: FIGS. 28A, 28B, 28C, 28D, 28E, 28F, 28G and 28H show the effect of IMPRO on renal inner medullary ENaC expression during AngThinduced hypertension. The expression of the three subunits of ENaC (α-, β-, and γ-) in the inner medulla of control, AngII and AngII+IM RPO rats was determined by immunobotting (A-E) and qRT-PCR (F-H). N=6 per group. Data are mean+SE.
Renal tissues were lysed and subsequently sonicated in PBS that contained 1% Triton x-100, 250 μM phenylmethanesulfonyl fluoride (PMSF), 2 mM EDTA, and 5 mM dithiothrietol (DTT) (pH 7.5). Protein concentrations were determined by the use of Coomassie reagent. […] of protein for each sample was denatured in boiling water for 10 min, then separated by SDS-PAGE, and transferred onto nitrocellulose membranes. The blots were blocked 1 h with 5% nonfat dry milk in Tris-buffered saline (TBS), followed by incubation for overnight with primary antibody. […] The blots were quantitated by using Imagepro-plus. […]
Epithelial sodium channel (ENaC) is the major sodium channel on the apical membrane of the CD Immunoblotting and qRT-PCR analysis of renal ENaC expression was performed. […] In contrast, α-ENaC protein abundance in the cortex was unaffected. qRT-PCR detected 1.6-fold increase of α-ENaC mRNA expression in the inner medulla, which was abolished by IM PRO (FIG. 28F). […]

renal medullary PRR, sequence (Q6AXS4 18-350): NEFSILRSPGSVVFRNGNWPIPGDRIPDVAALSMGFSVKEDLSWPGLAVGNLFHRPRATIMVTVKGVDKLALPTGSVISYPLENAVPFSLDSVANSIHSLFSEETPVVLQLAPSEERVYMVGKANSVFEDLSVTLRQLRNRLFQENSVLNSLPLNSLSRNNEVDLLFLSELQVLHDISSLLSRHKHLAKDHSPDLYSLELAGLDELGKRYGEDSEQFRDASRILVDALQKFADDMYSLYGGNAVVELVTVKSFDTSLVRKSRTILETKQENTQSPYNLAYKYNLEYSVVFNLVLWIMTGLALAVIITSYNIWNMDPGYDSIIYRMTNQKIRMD

Substance: Angiotensin II (DRVYIHPF; Angiotensin-2; UniProt P01019 25-32, looked up) [AngII]
- increase in aldosterone levels in the plasma [1]: 60%
- increase in aldosterone levels in the urine [1]: 3.2 fold
- MAP on day 7 (renal medullary PRR): 164.7+6.2 mmHg
- increase in renal medullary α-ENaC protein abundance (α-ENaC; immunoblotting): 2.2 fold
- increase of α-ENaC mRNA expression in the inner medulla (α-ENaC; qRT-PCR): 1.6 fold
